In PubChem BioAssay AID2060355 (Molecular Pharmacology Branch, DTP, NCI, 2025):
“And” between values parts separate entries of the source, which are not always exact repeats. Equal entries are not always repeated.

Test system: 485368-065-R4-J2-PDC spheroids with HUVEC/MSC, viability
Assay: Anticancer human tumor 485368-065-R4-J2-PDC patient-derived pancreatic carcinoma cell line growth inhibition [TAK]
Settings: for viability, T/C: stronger effect = lower value
Text: Combinatorial screen of targeted agents with TAK-243 and ipatasertib in multi-cell type tumor spheroids
A high-throughput screen of multi-cell type tumor spheroids was designed to identify active combinations of targeted small molecules and TAK-243 or ipatasertib. Complex spheroids include a stromal component modeled by human endothelial cells (HUVEC) and fibroblasts modeled by human mesenchymal stem cells (MSCs). The concentration ranges selected for each drug and investigational agent were based upon clinically achievable concentrations if the clinical Cmax of the agent was known.
Compounds. The drugs and investigational agents: TAK-243 (785004), ipatasertib (767898), everolimus (733504), selumetinib (741078), bortezomib (756655), trametinib (758246), ixazomib (758254), vemurafenib (761431), dabrafenib (764134), sapanisertib (764658), alpelisib (765974), and copanlisib (816437), were obtained from the National Cancer Institute (NCI) Developmental Therapeutics Program Chemical Repository. The FDA-approved anticancer drug set is available from the NCI Developmental Therapeutics Program. […] The stock solutions were prepared in dimethyl sulfoxide (DMSO, Sigma-Aldrich, St. Louis, MO, cat. D2650) at 800-fold the tested concentration and stored at -70 degrees C prior to their use. All drugs and investigational agents were tested over a range starting from a high concentration at or near the clinical Cmax and decreasing in half-log increments. If the clinical Cmax for an agent had not been determined, the highest concentration tested was 10 microM.
NCI60 Cell Culture. NCI60 cell lines were obtained from the NCI Developmental Therapeutics Program Tumor Repository. For each lot of cells, the Repository performed Applied Biosystems AmpFLSTR Identifiler testing with PCR amplification to confirm consistency with the published Identifier STR profile for each cell line. Cells were kept in continuous culture for no more than 20 passages. The optimal seeding densities for each of the cell lines at each time point assessed were determined prior to performing the concentration response studies. Briefly, the NCI60 human tumor lines were grown as monolayers in RPMI 1640 medium supplemented with 10% FBS and 2 mmol/L L-glutamine.
An additional 2 lines were from the NCI60 cell line panel including melanomas, MALME-3M and SK-MEL-2. Pooled donor human umbilical vein endothelial cells (HUVEC, Lonza, cat. CC-2519) and human mesenchymal stem cells (hMSC, Lonza, cat. PT-2501) were purchased from Lonza (Walkersville, MD).
PDMR cell lines were grown in complete medium (DC medium): Dulbecco's modified Eagle's medium (DMEM)/F12 supplemented with 5% fetal bovine serum (FBS), 2 mM L-glutamine, 100 U/mL penicillin and 100 µg/ml streptomycin, 0.4 µg/ml hydrocortisone, 10 ng/ml epidermal growth factor (EGF) recombinant human protein, 24 µg/mL adenine, and 0.1 mg/mL primocin. During culture from frozen stock vials, PDMR cells were cultured in the same medium containing 10 µM Y-27632 (see Table 3). The PDCs were cultured in complete DMEM/F12 media without 10 microM Y-27632 dihydrochloride for at least two passages prior to the screen. The pooled donor HUVEC and hMSC were cultured in endothelial cell growth medium 2 (PromoCell, Heidelberg, Germany, cat. C-22011) and mesenchymal stem cell growth medium 2 (PromoCell, cat. C-28009), respectively. For all experiments, HUVEC and hMSC were used at passages </=5.
For the pre-screen, cell seeding densities were determined from a titration spanning the range from 5,000 to 313 cells per well. The mct-spheroids including 60% malignant cells, 25% HUVEC and 15% MSC dispensed as a mixture into U-bottom Ultra-Low Attachment 384-well plates (Corning, NY)
High-throughput Drug Combination Screening.
Prior to their inoculation into 384-well plates, malignant cells, HUVEC, and hMSC were removed from T flasks using TrypLE express (Thermo Fisher Scientific, cat. 12605036) and harvested by centrifugation for 5 min at 233 x g. […]
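Also: spheroids exposed to compounds for seven days before readout.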
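For viability, T/C in this document: 100% = DMSO vehicle control wells.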

## CC(=O)Nc1cccc(-n2c(=O)n(C3CC3)c(=O)c3c(Nc4ccc(I)cc4F)n(C)c(=O)c(C)c32)c1
Compound 94.9 pM
  viability, T/C: 99.6% and 93%
Compound 0.0003 µM
  viability, T/C: 77.8% and 84%
Compound 0.000949 µM
  viability, T/C: 63.6% and 75.9%
Compound 0.003 µM
  viability, T/C: 62.5% and 71%
Compound 0.00949 µM
  viability, T/C: 45.7% and 50.3%
Compound 0.03 µM
  viability, T/C: 29.4% and 30.5%
Curve of compound
  IC50: 5.19 nM and 10.4 nM

## CC(C)(C)c1nc(-c2cccc(NS(=O)(=O)c3c(F)cccc3F)c2F)c(-c2ccnc(N)n2)s1
Compound 0.0316 µM
  viability, T/C: 111% and 113%
Compound 0.1 µM
  viability, T/C: 101% and 105%
Compound 0.316 µM
  viability, T/C: 84.3% and 89.6%
Compound 1 µM
  viability, T/C: 57.7% and 75.8%
Compound 3.16 µM
  viability, T/C: 57% and 60.5%
Compound 10 µM
  viability, T/C: 49.8% and 54.4%
Curve of compound
  IC50: > 10000 nM

## CC(C)CC(NC(=O)C(Cc1ccccc1)NC(=O)c1cnccn1)B(O)O (stereo unspecified)
Compound 31.6 pM
  viability, T/C: 108% and 103%
Compound 0.0001 µM
  viability, T/C: 101%
Compound 0.000316 µM
  viability, T/C: 96.3% and 89.7%
Compound 0.001 µM
  viability, T/C: 99% and 102%
Compound 0.00316 µM
  viability, T/C: 107% and 114%
Compound 0.01 µM
  viability, T/C: 9.55% and 6.03%
Curve of compound
  IC50: 6.05 nM and 5.9 nM

## CC(C)CC(NC(=O)CNC(=O)c1cc(Cl)ccc1Cl)B1OC(=O)CC(CC(=O)O)(C(=O)O)O1 (stereo unspecified)
Compound 0.000316 µM
  viability, T/C: 94.9% and 95.6%
Compound 0.001 µM
  viability, T/C: 102% and 98.5%
Compound 0.00316 µM
  viability, T/C: 94.6% and 94.7%
Compound 0.01 µM
  viability, T/C: 108% and 110%
Compound 0.0316 µM
  viability, T/C: 61.6% and 60.1%
Compound 0.1 µM
  viability, T/C: 9.41% and 9.34%
Curve of compound
  IC50: 40.8 nM and 39.7 nM

## CC(C)NCC(C(=O)N1CCN(c2ncnc3c2C(C)CC3O)CC1)c1ccc(Cl)cc1 (stereo unspecified)
Compound 0.3 µM
  viability, T/C: 95.9% [middle of 10 runs]
Compound 0.949 µM
  viability, T/C: 94.7% [middle of 10 runs]
Compound 3 µM
  viability, T/C: 99.1% [middle of 10 runs]
Compound 9.49 µM
  viability, T/C: 91.6% [middle of 10 runs]
Compound 30 µM
  viability, T/C: 78% [middle of 10 runs]
Compound alone, run of 02/20/2020
  IC50: > 30000 nM

## CC(C)n1nc(-c2ccc3oc(N)nc3c2)c2c(N)ncnc21
Compound 0.000316 µM
  viability, T/C: 102% and 92.5%
Compound 0.001 µM
  viability, T/C: 103% and 94.1%
Compound 0.00316 µM
  viability, T/C: 89.2% and 90.2%
Compound 0.01 µM
  viability, T/C: 87.3% and 94.1%
Compound 0.0316 µM
  viability, T/C: 63.8% and 72.8%
Compound 0.1 µM
  viability, T/C: 44.3% and 46.3%
Curve of compound
  IC50: 72.5 nM and 85 nM

## CCCS(=O)(=O)Nc1ccc(F)c(C(=O)c2c[nH]c3ncc(-c4ccc(Cl)cc4)cc23)c1F
Compound 0.316 µM
  viability, T/C: 110% and 92.4%
Compound 1 µM
  viability, T/C: 102% and 117%
Compound 3.16 µM
  viability, T/C: 89.2% and 101%
Compound 10 µM
  viability, T/C: 43.3% and 56.3%
Compound 31.6 µM
  viability, T/C: 99.8% and 46.6%
Compound 100 µM
  viability, T/C: 91.2% and 106%
Curve of compound
  IC50: > 100000 nM

## COC1CC2CCC(C)C(O)(O2)C(=O)C(=O)N2CCCCC2C(=O)OC(C(C)CC2CCC(OCCO)C(OC)C2)CC(=O)C(C)C=C(C)C(O)C(OC)C(=O)C(C)CC(C)C=CC=CC=C1C (stereo unspecified)
Compound 0.000316 µM
  viability, T/C: 89.3% and 76.4%
Compound 0.001 µM
  viability, T/C: 95.4% and 82.8%
Compound 0.00316 µM
  viability, T/C: 91.1% and 89.1%
Compound 0.01 µM
  viability, T/C: 92.2% and 96.3%
Compound 0.0316 µM
  viability, T/C: 92.8% and 90.3%
Compound 0.1 µM
  viability, T/C: 88.8% and 86.1%
Curve of compound
  IC50: > 100 nM

## COc1c(OCCCN2CCOCC2)ccc2c3n(c(=NC(=O)c4cnc(N)nc4)nc12)CCN3
Compound 0.00316 µM
  viability, T/C: 95.2% and 89.6%
Compound 0.01 µM
  viability, T/C: 74.6% and 75.8%
Compound 0.0316 µM
  viability, T/C: 72.5% and 70.2%
Compound 0.1 µM
  viability, T/C: 56.2% and 51.2%
Compound 0.316 µM
  viability, T/C: 32.7% and 29.9%
Compound 1 µM
  viability, T/C: 29.5% and 26.7%
Curve of compound
  IC50: 126 nM and 96.9 nM

## Cc1nc(NC(=O)N2CCCC2C(N)=O)sc1-c1ccnc(C(C)(C)C(F)(F)F)c1 (stereo unspecified)
Compound 0.0316 µM
  viability, T/C: 100% and 99.2%
Compound 0.1 µM
  viability, T/C: 92.8% and 93%
Compound 0.316 µM
  viability, T/C: 81.5% and 77.7%
Compound 1 µM
  viability, T/C: 81.9% and 78.4%
Compound 3.16 µM
  viability, T/C: 73.4% and 71.8%
Compound 10 µM
  viability, T/C: 51% and 48.5%
Curve of compound
  IC50: > 10000 nM

## Cn1cnc2c(F)c(Nc3ccc(Br)cc3Cl)c(C(=O)NOCCO)cc21
Compound 0.00949 µM
  viability, T/C: 70.9% and 67.5%
Compound 0.03 µM
  viability, T/C: 68.9% and 66.8%
Compound 0.0949 µM
  viability, T/C: 76.3% and 60.8%
Compound 0.3 µM
  viability, T/C: 64.8% and 51%
Compound 0.949 µM
  viability, T/C: 54.1% and 43.5%
Compound 3 µM
  viability, T/C: 36.9% and 30.2%
Curve of compound
  IC50: 1220 nM and 405 nM

## COC1CC2CCC(C)C(O)(O2)C(=O)C(=O)N2CCCCC2C(=O)OC(C(C)CC2CCC(OCCO)C(OC)C2)CC(=O)C(C)C=C(C)C(O)C(OC)C(=O)C(C)CC(C)C=CC=CC=C1C (stereo unspecified) + CC(C)NCC(C(=O)N1CCN(c2ncnc3c2C(C)CC3O)CC1)c1ccc(Cl)cc1
Curve of first compound, second compound 0.3 µM
  IC50: > 100 nM
Curve of first compound, second compound 0.949 µM
  IC50: > 100 nM
Curve of first compound, second compound 3 µM
  IC50: > 100 nM
Curve of first compound, second compound 9.49 µM
  IC50: > 100 nM
Curve of first compound, second compound 30 µM
  IC50: > 100 nM
Second compound 0.3 µM, first compound 0.000316 µM
  viability, T/C: 93.1%
Second compound 0.3 µM, first compound 0.001 µM
  viability, T/C: 102%
Second compound 0.3 µM, first compound 0.00316 µM
  viability, T/C: 104%
Second compound 0.3 µM, first compound 0.01 µM
  viability, T/C: 107%
Second compound 0.3 µM, first compound 0.0316 µM
  viability, T/C: 101%
Second compound 0.3 µM, first compound 0.1 µM
  viability, T/C: 102%
Second compound 0.949 µM, first compound 0.000316 µM
  viability, T/C: 103%
Second compound 0.949 µM, first compound 0.001 µM
  viability, T/C: 106%
Second compound 0.949 µM, first compound 0.00316 µM
  viability, T/C: 100%
Second compound 0.949 µM, first compound 0.01 µM
  viability, T/C: 92.1%
Second compound 0.949 µM, first compound 0.0316 µM
  viability, T/C: 87.3%
Second compound 0.949 µM, first compound 0.1 µM
  viability, T/C: 83.5%
Second compound 3 µM, first compound 0.000316 µM
  viability, T/C: 100%
Second compound 3 µM, first compound 0.001 µM
  viability, T/C: 97.1%
Second compound 3 µM, first compound 0.00316 µM
  viability, T/C: 82.9%
Second compound 3 µM, first compound 0.01 µM
  viability, T/C: 76.5%
Second compound 3 µM, first compound 0.0316 µM
  viability, T/C: 71.1%
Second compound 3 µM, first compound 0.1 µM
  viability, T/C: 74.4%
Second compound 9.49 µM, first compound 0.000316 µM
  viability, T/C: 83.8%
Second compound 9.49 µM, first compound 0.001 µM
  viability, T/C: 83.1%
Second compound 9.49 µM, first compound 0.00316 µM
  viability, T/C: 69%
Second compound 9.49 µM, first compound 0.01 µM
  viability, T/C: 71.4%
Second compound 9.49 µM, first compound 0.0316 µM
  viability, T/C: 64.3%
Second compound 9.49 µM, first compound 0.1 µM
  viability, T/C: 60.3%
Second compound 30 µM, first compound 0.000316 µM
  viability, T/C: 73.9%
Second compound 30 µM, first compound 0.001 µM
  viability, T/C: 69%
Second compound 30 µM, first compound 0.00316 µM
  viability, T/C: 63.9%
Second compound 30 µM, first compound 0.01 µM
  viability, T/C: 58.7%
Second compound 30 µM, first compound 0.0316 µM
  viability, T/C: 60.1%
Second compound 30 µM, first compound 0.1 µM
  viability, T/C: 54.5%
